Test results published in patent publication US20050009849A1, “Pyridopyrimidine kinase inhibitors” (priority 2003, published 2005).
Like-named read-outs stand apart in the source and are kept apart here.

Legend:
[1] = Pharmacokinetics in B6D2F1 mice; type: in vivo; conditions: for Cmax / MRT / bioavailability: B6D2F1, mouse, plasma, 1 mg; for Cmax / MRT / AUG (uM × Min) IV / AUG (uM × Min) PO: one milligram; for bioavailability: po vs iv
Description: Solvents. […] SKI-DV281 was dissolved/suspended in a solution of 20% Cremophor +20% ethanol in saline.
Animal Experiments. For each compound, nineteen B6D2F1 mice were used. One mouse was used as control and the rest was divided into two groups with 9 mice per group. One milligram ([…] at 17 mg/ml) of compound was administered to the mice through oral gavage in one group and intravenously in the other group. At each time point (total of 9 time points) after the drug administration, one mouse from each group was sacrificed and approximately 400 μl of blood was collected into heparinized tubes through cardiac puncture. The plasma samples were analyzed as described below.
Analytical. The analysis of drug level in plasma is performed with an automated LC-MS system, which consists of a Prospekt-2 automated sample processor, interfaced with an Agilent 1100 LC-MS. The Prospekt-2 consists of two parts, high pressure eluter (HPE) and automated cartridge exchanger (ACE). The Agilent unit consists of a binary pump, an autosampler, the instrument will perform extraction and analysis automatically. The ACE picks up a new C, 18 solid phase […] (SPE) cartridge and places it into the clamp. The HPE activates the cartridge by passing acetonitrile and water through the cartridge. The autosampler picks up a predetermined amount of the plasma and the HPE flushes the plasma onto the SPE cartridge, washes it with water, then the sample is analyzed. When the cycle is completed, the ACE will fetch a new cartridge and cycle is repeated.
Data analysis and result. The pharmacokinetic curve for each compound was plotted intravenous versus oral (iv vs. po) (see FIGS. 27-29). Data analysis was performed with WinNonlin v.4 (Pharsight) using non-compartmental model.

[2] = Serial plasma levels in mice (bioavailability); type: in vivo; conditions: mouse, oral, read-out: bioavailability after oral administration relative to intravenous or intraperitoneal injection
Description: Toxicological and pharmacological studies in mice and dogs include determining the maximum tolerated doses, measuring plasma and tissue levels and bioavailability after oral and parenteral administration, and developing optimal formulations for both oral and parenteral use. […] One way to administer the drug is by continuous infusion, and we are currently exploring the use of small osmotic pumps that can be inserted into the peritoneal cavities of mice that will deliver a constant concentration continuously. All animal studies are performed under the standard guidelines. Initial dose escalation studies are performed via oral delivery on control mice in order to determine the maximum tolerated dose (MTD). Studies proceed at or below half-MTD. The inherent kinetics for disease engraftment of each model system and the appropriate windows for duration of drug administration are then determined. In the human mesothelioma xenograft model, tumor formation is evaluated, allowing for the establishment of 1-2 mm^3 tumors before drug administration. Survival data are presented using the Kaplan-Meyer method. We will compare the administration of the inhibitors by i.v. or i.p. bolus injection with continuous i.p. infusion using an osmotic pump.

[3] = molecular target: T1, Ba/F3 cells transformed with Bcr-Abl wild-type (Homo sapiens, UniProt P00519, cells depend on it, form not given); assay: MTS proliferation, Ba/F3 Bcr-Abl wild-type; type: cell-based
T1 construct: fused on or other part: P11274 (Breakpoint cluster region protein)
Description: (§1) Presence of single point mutations was verified by sequencing. […] Parental cells were cultured in presence of 2 ng/mL interleukin-3 (IL-3, R&D, Wiesbaden, Germany). IL-3 independent Ba/F3 cells expressing wild-type and mutant BCR-ABL were generated by electroporation and transformed upon withdrawal of IL-3. Expression of Bcr-Abl was confirmed by western blot and flow-cytometric analysis.
(§2) Proliferation was measured using a MTS tetrazolium-based method by absorption of formazam at 490 nm (CellTiter 96, Promega, Madison, Wis., USA). Measures were taken as triplicates after 24 and 48 hours of culture without and in the presence of inhibitor at the indicated concentrations.

[4] = test system: Ba/F3 cells expressing P loop mutant Y253H; assay: MTS proliferation, Ba/F3 Bcr-Abl Y253H; type: cell-based
Description: as §1, §2

[5] = test system: Ba/F3 cells expressing P loop mutant E255V; assay: MTS proliferation, Ba/F3 Bcr-Abl E255V; type: cell-based
Description: as §1, §2

parental Ba/F3 cells = assay: MTS proliferation, parental Ba/F3 cells; type: cell-based; conditions: read-out: IC50, unspecific growth inhibition
Description: […]. Lancet, 359: 487-491, 2002; incorporated herein by reference). Briefly, RT-PCR fragments derived from clinical samples were cloned into pBlueskript SK+ p185^bcr-abl (Stratagene, Amsterdam, NL), and subcloned into pcDNA3.1/Zeo (+) (Invitrogen, Leek, NL) and Mig EGFP (Bai, R. Y., Ouyang, T., Miething, C., Morris, S. W., Peschel, C., and Duyster, J. Nucleophosmin-anaplastic lymphoma kinase associated with anaplastic large-cell lymphoma activates the phosphatidylinositol 3-kinase/Akt antiapoptotic signaling pathway. Blood, 96: 4319-4327, 2000; incorporated herein by reference). Presence of single point mutations was verified by sequencing. Ba/F3 cells were maintained in RPMI 1640 growth media (Gibco, Karlsruhe, Germany) containing 10% fetal calf serum (Gibco) and P/S (Gibco) (200 U penicillin per mL and 200 μg streptomycin per mL). Parental cells were cultured in presence of 2 ng/mL interleukin-3 (IL-3, R&D, Wiesbaden, Germany). IL-3 independent Ba/F3 cells expressing wild-type and mutant BCR-ABL were generated by electroporation and transformed upon withdrawal of IL-3. Expression of Bcr-Abl was confirmed by western blot and flow-cytometric analysis.
Proliferation was measured using a MTS tetrazolium-based method by absorption of formazam at 490 nm (CellTiter 96, Promega, Madison, Wis., USA). […]

Bcr-Abl wild-type = molecular target: T2, Bcr-Abl wild-type (Homo sapiens, UniProt P00519); assay: Bcr-Abl tyrosine phosphorylation in Ba/F3 cells, wild-type; type: cell-based
T2 construct: expressed in transfected cells; host or cells: Ba/F3 cells (electroporation, IL-3 independent); the other entry of the earlier key: BCR (P11274, Breakpoint cluster region protein)

Bcr-Abl E255K = Bcr-Abl E255K (Homo sapiens, UniProt P00519, E255K)
Description: (§3) Ba/F3 cells were cultured for 2,5 hours without and in presence of inhibitor at the indicated concentrations. Cell lysis, SDS-PAGE and immunoblotting were done as described previously.^42 Anti-Abl antibodies were obtained from Pharmingen (8E9) (BD Biosciences, Heidelberg, Germany) and Calbiochem-Novabiochem (Ab3) (Schwalbach, Germany). Antibodies to phosphotyrosine were purchased from Upstate Biotechnology (4G10) (Biozol, Eching, Germany) and Transduction (PY20) (BD Biosciences, Heidelberg, Germany). Bands were visualized using the ECL system (Amersham, Braunschweig, Germany).

Bcr-Abl E255V = Bcr-Abl E255V (Homo sapiens, UniProt P00519, E255V)
Description: as §3

Bcr-Abl H396P = Bcr-Abl H396P (Homo sapiens, UniProt P00519, H396P)
Description: as §3

Bcr-Abl Y253H = Bcr-Abl Y253H (Homo sapiens, UniProt P00519, Y253H)
Description: as §3

Bcr-Abl/T3151 = molecular target: T3, Bcr-Abl/T3151 (Homo sapiens, UniProt P00519, T315I); assay: Bcr-Abl tyrosine phosphorylation in Ba/F3 cells, T3151; type: cell-based
T3 construct: expressed in transfected cells; host or cells: Ba/F3 cells; the other entry of the earlier key: BCR (P11274, Breakpoint cluster region protein)

[6] = molecular target: T4, Ba/F3 cells transformed with Bcr-Abl wild-type (Homo sapiens, UniProt P00519); assay: MTS proliferation, Ba/F3 Bcr-Abl wild-type; type: cell-based; conditions: for GI50: read-out: IC50, growth inhibition
T4 construct: other: von Bubnoff et al. 2002; other: 48 hours of culture; fused on or other part: P11274 (Breakpoint cluster region protein)
Description: as §1, §2

[7] = test system: Ba/F3 cells expressing P loop mutant E255K; assay: MTS proliferation, Ba/F3 Bcr-Abl E255K; type: cell-based
Description: as §1, §2

CML progenitors = assay: cells; type: cell-based, human; conditions: for inhibition at 0.01 µM: read-out: average inhibition of CML GM progenitors, 10 nM
Description: (§4) In many experiments the CD34+ blasts were further depleted of GM, megakaryocyte or lymphocyte progenitors (CD 13, 14, 15, 46, 61, 19-) or of erythroid and megakaryocyte progenitors (CD36-, Glycophorin-, CD41/61-) in order to study the drug's effects on purer erythroid or GM progenitors.

normal progenitors = assay: Inhibition of normal progenitors; type: cell-based, human
Description: as §4

R10-Negative cells = assay: CFSE cell division and viability; type: cell-based
Description: Using the vital stain, CFSE, it is possible to determine the concentrations of different inhibitors required to arrest cell division and also to quantitate the number of quiescent cells. […] However with exposure to ST1571 at the same concentration many cells continue dividing and 80% are still viable after 6 days; even at 100 nM ST1571, some cells are able to continue dividing and the viability is still 24% at 6 days.

Solubility = type: physicochemical
CML cell lines = assay: cells; conditions: read-out: IC50 on CML cell lines
[8] = test system: R10 Negative and R10 Positive cells (M07e/p210bcr-abl); assay: cells; conditions: M-07e
[9] = test system: human glioblastoma, sarcoma, neuroblastoma and Ewing's sarcoma cell lines; assay: cells; conditions: read-out: average IC50s
[10] = intravenous, read-out: Cmax (uM) IV
[11] = intravenous, read-out: MRT (Min) IV (converted)
[12] = oral gavage, read-out: Cmax (uM) PO
[13] = oral gavage, read-out: MRT (Min) PO (converted)

Cn1c(=O)c(-c2c(Cl)cccc2Cl)cc2cnc(Nc3cccc(CO)c3)nc21 [PD166326, 6-(2,6-Dichlorophenyl)-2-(3-hydroxymethylphenylamino)-8-methyl-8H-pyrido[2,3-d]pyrimidin-7-one]
Cmax [1, 10]: 90 µM | MRT [1, 11]: 103 min | Cmax [1, 12]: 3.2 µM | MRT [1, 13]: 126 min | bioavailability [1]: 6.6% | AUG (uM × Min) IV ([1]; intravenous): 2395 µM·min | AUG (uM × Min) PO ([1]; oral gavage): 158 µM·min | bioavailability [2]: ~8%

Cc1cc(Nc2ncc3cc(-c4c(Cl)cccc4Cl)c(=O)n(C)c3n2)ccc1F [PD180970]
fold higher concentrations than the most active compounds [3]: 5 fold | cellular IC95 [4]: 770 nM | cellular IC95 [5]: 935 nM | IC50 (parental Ba/F3 cells): 830 nM | concentration of complete disappearance of phosphotyrosine Bcr-Abl (Bcr-Abl wild-type): 250 nM | concentration of complete disappearance of phosphotyrosine Bcr-Abl (Bcr-Abl E255K): 1 µM | concentration of complete disappearance of phosphotyrosine Bcr-Abl (Bcr-Abl E255V): 2 µM | concentration of complete disappearance of phosphotyrosine Bcr-Abl (Bcr-Abl H396P): 250 nM | concentration of complete disappearance of phosphotyrosine Bcr-Abl (Bcr-Abl Y253H): 2 µM | activity (autophosphorylation) of Bcr-Abl/T3151 (Bcr-Abl/T3151): did not impair

Cn1c(=O)c(-c2c(Cl)cccc2Cl)cc2cnc(Nc3cccc(N)c3)nc21 [SKI DV 2-43, 2-(3-Aminophenylamino)-6-(2,6-dichlorophenyl)-8-methyl-8H-pyrido[2,3-d]pyrimidin-7-one]
IC95, growth inhibition [6]: 40 nM | GI50 ([6]; ba/f3 cells transformed with bcr-abl wild-type): 9 nM | cellular IC95 [7]: 110 nM | cellular IC95 [4]: 125 nM | cellular IC95 [5]: 200 nM | Cmax [1, 10]: 224 µM | MRT [1, 11]: 174 min | Cmax [1, 12]: 10 µM | MRT [1, 13]: 294 min | bioavailability [1]: 4% | AUG (uM × Min) IV ([1]; intravenous): 20319 µM·min | AUG (uM × Min) PO ([1]; oral gavage): 826 µM·min

CSc1cccc(Nc2ncc3cc(-c4c(Cl)cccc4Cl)c(=O)n(C)c3n2)c1 [PD173955]
CML erythroid progenitors' exaggerated response to EPO alone or KL alone (CML progenitors; 10 nM): almost completely blocked | IC50 (CML progenitors; Homo sapiens, read-out: IC50 for CML progenitors, varies in different patients): 1.5 to 7.5 nM | inhibition at 0.01 µM (CML progenitors; Homo sapiens, G- + GM + KL): 34% | inhibition at 0.01 µM (CML progenitors; Homo sapiens, G- + GM-CSF at 0.03 ng/ml): 68% | inhibition at 0.01 µM (CML progenitors; Homo sapiens, G- + GM-CSF at 10 ng/ml): 61% | inhibition at 0.01 µM (CML progenitors; Homo sapiens, KL alone at 50-100 ng/ml): 83% | IC50 (CML progenitors; read-out: IC50 for CML progenitors, varies in different patients): ~2 nM | effect on normal erythroid progenitors (normal progenitors; 10 nM): unaffected | inhibition of normal progenitors (normal progenitors; 10 nM, any of the cytokines singly or in combination): no inhibition | IC50 (normal progenitors; Homo sapiens): 350 nM | cell division (CFSE) (R10-Negative cells; 25 nM, after one division by Day 2): subsequent divisions are blocked | solubility (Solubility): quite insoluble | IC50 (CML cell lines): 2 to 35 nM | IC50 [8]: ~2 nM | IC50 [9]: 400 to 1000 nM

Cc1ccc(NC(=O)c2ccc(CN3CCN(C)CC3)cc2)cc1Nc1nccc(-c2cccnc2)n1 [STI-571]
viability at […] (R10-Negative cells; 144 h, 25 nM, after 6 days): 80% | viability at 0.1 µM (R10-Negative cells; 144 h, 100 nM, at 6 days): 24%

Cn1c(=O)c(-c2c(Cl)cccc2Cl)cc2cnc(Nc3ccc(NC(=O)CCCCCNC(=O)CCCC[C@@H]4SC[C@@H]5NC(=O)N[C@@H]54)cc3)nc21 [SKI DV 1-10 biotinyl, 2-{4-[6-(Biotinamido)hexanamido]phenylamino}-6-(2,6-dichlorophenyl)-8-methyl-8H-pyrido[2,3-d]pyrimidin-7-one]
IC95, growth inhibition ([6]; 48 hours of culture): 515 nM | GI50 ([6]; 48 hours of culture): 115 nM
